The subject of experiment [1] is S. aureus. The experiment can be described thus: Mouse skin infection model: S. aureus infection in abraded mouse skin treated with topical ointment. In kind it is in vivo. The following applies: for synergy or additive effect with nisin in the skin infection model (in words): combination with nisin; for synergy or additive effect with nisin in the skin infection model (in words) / synergy with mupirocin in the skin infection model (in words): superficial wound model; for synergy with mupirocin in the skin infection model (in words): combination with mupirocin. The method, then: (§1) Mouse Skin Infection Model: An overnight culture of S. aureus grown in tryptic soy broth (SA8; range from 1 to 6×10^9 CFUs/mL) was centrifuged at 4000×g for 10 minutes and resuspended in an equal volume of phosphate buffered saline (PBS). The bacteria were diluted to a percent transmittance of 40 (Spectronic 20D+) and diluted a subsequent 1:1000 in PBS for a final bacteria concentration of about 3×10^5. SKH1 (hrhr) hairless mice (Charles River) were sedated with 0.2 mL of ketamine (80 mg/kg) and xylazine (32 mg/kg) delivered intraperitoneally. The upper back of the mice were scrubbed with a 70% alcohol wipe and allowed to dry. Fine abrasions were made on the backs of the mice between the shoulders using 150 grit sandpaper. Bacteria were swabbed over the abraded area with a sterile, cotton-tipped applicator until the area was saturated with the solution.
Topical Ointment: 74 g of PEG 400 and 24 g of PEG 3350 were added to a 250 mL glass beaker and heated until all of the PEG 3350 was melted. […] Lysostaphin was first dissolved to a concentration of about 150 mg/mL in DI water before mixing into the ointment to give a final concentration of 2% (w/w).
Treatment of Infected Skin with Topical Ointment: Treatments aimed to eradicate S. aureus skin infections in the mouse model were started on the morning after infection (Day 1). […] The mice were sacrificed by CO2 asphyxiation on the morning of Day 3 and a 0.5-cm^2 patch of skin around the infected area was excised. The skin sample was disected and placed into a test tube containing 1 mL of 5 mg/mL proteinase K, 20 mg/mL esterase, and 20 mg/mL activated charcoal in PBS to neutralize the activity of the antibacterial agents. Bacteria were dislodged from the skin sample by sonication: 2 minute treatments per sample with alternating 5 seconds at 3 W and 5 seconds at 0 W in a Virsonic 600 with microtip (VirTis). After mixing by vortex, 50 μL of each sample was streaked onto blood agar plates, incubated at 37° C. overnight, and the colonies were counted and compared to untreated controls.
For the following data, except where noted in FIG. 2, all antibiotic formulations were in a common polyethylene glycol (PEG) ointment (PEG 400 plus PEG 3350).

Experiment [2] concerns S. aureus. The experiment can be described thus: In vitro MIC of nisin alone or in combination (log reduction of viable S. aureus). In kind it is cell-based. The following applies: FIG. 11. The method, then: In order to determine if nisin could function in a synergistic way with other antimicrobials to treat (e.g., kill and/or inhibit growth of) bacteria in vitro, the minimum inhibitory concentration (MIC) of nisin alone or nisin in combination with either mupirocin, neomycin or gentamicin were tested. The MIC was determined by calculating the log reduction of viable S. aureus following incubation with the amounts of nisin and other antimicrobials as indicated in FIG. 11.

In experiment [3] the test system is Staphylococcus aureus ATCC #6538. The experiment can be described thus: Pig partial thickness wounds inoculated with Staphylococcus aureus. It is filed as in vivo.
Experiment [4] has as its system P. aeruginosa. The experiment can be described thus: P. aeruginosa infection in abraded mouse skin. It is filed as in vivo. To be noted: FIG. 4.
The subject of experiment [5] is S. aureus strain resistant to mupirocin. The experiment can be described thus: Mupirocin-resistant S. aureus infection in abraded mouse skin. It is filed as in vivo. To be noted: FIG. 3. The method, then:
as §1
Topical Ointment: 74 g of PEG 400 and 24 g of PEG 3350 were added to a 250 mL glass beaker and heated until all of the PEG 3350 was melted. […]
Treatment of Infected Skin with Topical Ointment: Treatments aimed to eradicate S. aureus skin infections in the mouse model were started on the morning after infection (Day 1). […] After mixing by vortex, 50 μL of each sample was streaked onto blood agar plates, incubated at 37° C. overnight, and the colonies were counted and compared to untreated controls.

Experiment [6] has as its system S. aureus. The experiment can be described thus: Suture skin infection model (deep tissue infection) in mouse. In kind it is in vivo. To be noted: deep cut, FIG. 13. Here is the method: It was determined whether nisin and mupirocin, either alone or in combination with each other, would be able to treat S. aureus in a deep tissue infection model. A suture skin infection model was generated in which a deep cut (e.g., one needing sutures to close) was made in a mouse and S. aureus introduced into the incision. […] Thus, a combination of nisin and mupirocin can be used to treat a deep tissue infection as well as a […] infection.

For experiment [7], the system named is P. aeruginosa. To be noted: previously shown; cited from earlier work.

This is an account of results in patent US8697639B2, “Compositions and methods for treating bacteria” (Biosynexus Incorporated, priority 2005, dated 2014).

Bridge positions count the residues as written; N and C are the ends. Square brackets hold non-standard residues; d marks the D form. Peptide text beside a SMILES is read from it. * marks the point of attachment. Ileψ(thiazoline)Cys = CC[C@H](C)[C@H](N)C1=N[C@H](C(=O)*)CS1; dOrn = NCCC[C@@H](N)C(=O)O

Consider gentamicin, for which the “synergy or additive effect with nisin in the skin infection model (in words)” value (“synergy or additive effect with nisin” below) in the experiment on S. aureus [1] is “did synergize”. In the experiment on S. aureus [2], the “synergy with nisin in vitro (in words)” value is on record as “does not synergize”.
As to `CC[C@H](C)[C@H](N)C1=N[C@H](C(=O)N[C@@H](CC(C)C)C(=O)N[C@H](CCC(=O)O)C(=O)N[C@H](C(=O)N[C@H]2CCCCNC(=O)[C@H](CC(N)=O)NC(=O)[C@@H](CC(=O)O)NC(=O)[C@H](Cc3cnc[nH]3)NC(=O)[C@@H](Cc3ccccc3)NC(=O)[C@H]([C@@H](C)CC)NC(=O)[C@@H](CCCN)NC2=O)[C@@H](C)CC)CS1` [bacitracin] ({Ileψ(thiazoline)Cys}-L[dE]IK[dOrn]I[dF]H[dD]N; lactam 4-C), the “synergy with mupirocin in the skin infection model (in words)” value in the experiment on S. aureus [1] was “did not synergize”.
For gallidermin, in the experiment with S. aureus [1], the “synergy with mupirocin in the skin infection model (in words)” value was “did synergize” and the “synergy or additive effect with nisin” value is recorded as “did not synergize”.
Turning to neomycin, the “synergy or additive effect with nisin” value in the experiment with S. aureus [1] is “did not synergize”. Besides, in the experiment on S. aureus [2], the “synergy with nisin in vitro (in words)” value is given as “does not synergize”.
Take `C/C(=C\C(=O)OCCCCCCCCC(=O)O)C[C@@H]1OC[C@H](C[C@@H]2O[C@H]2[C@@H](C)[C@H](C)O)[C@@H](O)[C@H]1O` [mupirocin]: the “Staphylococcus aureus recovered from wounds” value in experiment [3] (Day 7 post treatment, FIG. 8) stood at 1.63 Log cfu/ml; in experiment [3] (two days after initial treatment, treated twice per day, FIG. 6), 4.96±0.8 Log CFU/ml. Besides, in the experiment with P. aeruginosa [4], the “activity relative to nisin formulation (in words)” value is “does not add any additional activity”. Also, the “decrease of infectious CFUs” value in the experiment on S. aureus [1] (abraded mouse skin, PEG ointment 3 times a day on Days 1 and 2, FIG. 1, for combinations: residual infections) came out at 3 logs. In experiment [5], the “activity against mupirocin-resistant S. aureus (in words)” value is on record as “minimal activity”. The “efficacy in treating S. aureus in suture infection model (in words)” value in the experiment on S. aureus [6] is given as “very little efficacy”. Further, in the experiment with S. aureus [2], the “synergy with nisin in vitro (in words)” value is on record as “does not synergize”. Further, the “activity against P. aeruginosa (in words)” value in the experiment on P. aeruginosa [7] was “poor activity”.
